According to patent publication US20210369642A1, “THERAPEUTIC CANNABINOID DERIVATIVES COMPOSITION AS HISTAMINE 2 (H2) BLOCKING AGENTS” (priority 2018, published 2021):

Legend:
Assay type in all cases: cell-based
HRH2 [1] = target: T1, HRH2 (Homo sapiens, UniProt P25021); assay: H2 blockade assay: cAMP assay, antagonist mode (agonist challenge at EC80); settings: for antagonist activity against H2 (in words): in-vitro
Description: The cAMP assays can monitor the activation of a GPCR via Gi and Gs secondary messenger signalling in a homogenous, non-imaging assay format using, for example, a technology developed by DiscoverX called Enzyme Fragment Complementation (EFC) with β-galactosidase (β-Gal) as the functional reporter.
The cannabinoid-based pharmaceutical composition according to FIG. 1 was subjected to an H2 blockade assay. For antagonist determination, cells were pre-incubated with sample followed by agonist challenge at the EC80 concentration. Media was aspirated from cells and replaced with 10 μL 1:1 BSS/Hepes: cAMP XS+ Ab reagent. 5 μL of 4X compound was added to the cells and incubated at […] or room temperature for 30 minutes. 5 μL of 4X EC80 agonist was added to cells and incubated at 37° C. or room temperature for 30 or 60 minutes.
The enzyme is split into two complementary portions, Enzyme Acceptor (EA) and Enzyme Donor (ED). ED is fused to cAMP and in the assay competes with cAMP generated by cells for binding to a cAMP-specific antibody. Active β-Gal is formed by complementation of exogenous EA to any unbound ED-cAMP.

HRH2 [2] = target: T1, HRH2; assay: cAMP assay, agonist mode; settings: for % Response Average / % Response Replicate 1 / % Response Replicate 2: 10 uM, cAMP, HRH2, Agonist mode
HRH1 [3] = target: T2, HRH1 (Homo sapiens, UniProt P35367); assay: Calcium Flux assay, agonist mode; settings: for % Response Average / % Response Replicate 1 / % Response Replicate 2: 10 uM, Calcium Flux, HRH1, Agonist mode
T2 sequence (P35367 whole entry): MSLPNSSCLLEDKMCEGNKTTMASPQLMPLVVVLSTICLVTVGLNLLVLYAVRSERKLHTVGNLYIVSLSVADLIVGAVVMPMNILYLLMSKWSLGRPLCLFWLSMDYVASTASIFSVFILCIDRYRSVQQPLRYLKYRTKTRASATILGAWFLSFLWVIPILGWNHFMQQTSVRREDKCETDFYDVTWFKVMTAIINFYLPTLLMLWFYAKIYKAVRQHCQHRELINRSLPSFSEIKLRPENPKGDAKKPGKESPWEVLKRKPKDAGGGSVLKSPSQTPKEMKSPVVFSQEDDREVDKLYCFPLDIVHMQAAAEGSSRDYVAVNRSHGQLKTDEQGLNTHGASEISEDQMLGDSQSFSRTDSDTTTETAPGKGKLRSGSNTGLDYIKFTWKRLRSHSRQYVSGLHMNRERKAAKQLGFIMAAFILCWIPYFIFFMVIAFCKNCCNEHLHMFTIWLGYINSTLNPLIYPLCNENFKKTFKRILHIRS

HRH1 [4] = target: T2, HRH1; assay: Calcium Flux assay, antagonist mode; settings: for % Response Average / % Response Replicate 1 / % Response Replicate 2: 10 uM, Calcium Flux, HRH1, Antagonist mode; for antagonist activity against H1 (in words): single concentration of 10 μM
[5] = 10 uM, cAMP, HRH2, Antagonist mode

T1 sequence (P25021 whole entry, the tested form may be a part): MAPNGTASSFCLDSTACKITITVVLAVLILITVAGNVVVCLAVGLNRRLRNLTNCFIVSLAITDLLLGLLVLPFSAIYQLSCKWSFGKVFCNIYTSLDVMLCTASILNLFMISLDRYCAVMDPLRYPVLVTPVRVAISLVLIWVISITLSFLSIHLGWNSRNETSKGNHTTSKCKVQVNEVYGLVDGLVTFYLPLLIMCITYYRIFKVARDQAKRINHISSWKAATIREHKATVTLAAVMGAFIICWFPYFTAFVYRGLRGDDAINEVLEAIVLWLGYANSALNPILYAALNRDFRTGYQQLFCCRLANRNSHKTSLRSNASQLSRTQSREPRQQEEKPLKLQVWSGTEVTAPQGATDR

Row | Structure (SMILES) | % Response Average (HRH2 [1]; [5]) | % Response Replicate 1 (HRH2 [1]; [5]) | % Response Replicate 2 (HRH2 [1]; [5]) | antagonist activity against H2 (in words) (HRH2 [1]) | % Response Average (HRH2 [2]) | % Response Replicate 1 (HRH2 [2]) | % Response Replicate 2 (HRH2 [2]) | % Response Average (HRH1 [3]) | % Response Replicate 1 (HRH1 [3]) | % Response Replicate 2 (HRH1 [3]) | % Response Average (HRH1 [4]) | % Response Replicate 1 (HRH1 [4]) | % Response Replicate 2 (HRH1 [4]) | antagonist activity against H1 (in words) (HRH1 [4]) | IC50 (HRH2 [1]; dose-response / concentration dependent assay) | inhibition at 10 µM (HRH2 [1]; preliminary assay, single concentration of 10 μM, read-out: inhibited H2 by %) | agonist activity against H2 (in words) (HRH2 [2]; single concentration of 10 μM) | agonist activity against H1 (in words) (HRH1 [3]; single concentration of 10 μM)
1 | CCCCCc1cc(O)c2c(c1)OC(C)(C)[C@@H]1CCC(C)=C[C@@H]21 [THC, Tetrahydrocannabinol, reference compound] | 7.7% | −2.0% | 17.3% | none | 3.2% | 4.3% | 2.0% | −0.7% | −0.5% | −0.9% | 78.2% | 77.0% | 79.3% | showed antagonist activity | – | – | – | –
2 | C=C(C)[C@@H]1CCC(C)=C[C@H]1c1c(O)cc(CCCCC)cc1O [CBD, Cannabidiol] | – | – | – | potent antagonist | 5.1% | 4.7% | 5.5% | 0.3% | 0.3% | 0.2% | 10.1% | 7.6% | 12.5% | no agonist or antagonist activity | 1.53 µM | 91.5% | no agonist activity | no agonist or antagonist activity
